Literature values as cited in patent EP4512393A1, “COMBINATION OF SODIUM DICHLOROACETATE AND VALPROIC ACID SALTS FOR THE TREATMENT OF VIRAL AND BACTERIAL INFECTIONS AND INFLAMMATORY DISEASES” (Lietuvos sveikatos mokslu universitetas, priority 2023, dated 2025).

System: leukocyte migration into the peritoneal cavity
Conditions: peritonitis-induced male rat model

Compound: CCCC(CCC)C(=O)O [VPA, 2-n-propyl-pentanoic acid]
- inhibition of leukocyte migration into the peritoneal cavity: 92%
